Results as given in patent publication US5759768A, “Assays for factors affecting circularization of DNA, assays for factors affecting DNA integration, factors, and uses thereof” (priority 1995, dated 1998).
Entries after “also recorded” stand apart in the source; their conditions may differ.

Key:
[1] = tested on: viral DNA (circularization versus integration into .phi.X174 target DNA); experiment: Circularization versus integration (competition) in cytoplasmic extracts from infected cells; type: biochemical, HIV-1
Procedure: Circularization of the linear viral DNA present in cytoplasmic extracts was competitive with integration into heterologous DNA targets (FIG. 28). In FIG. 28, cytoplasmic extracts from infected cells were incubated at 37° C. as follows: Lane 1; incubation with 10 μg/ml .phi.X174 DNA for 45 minutes, lane 2, incubation with 1 mM ATP for 45 minutes; lane 3, incubation with […] .phi.X174 DNA and 1 mM ATP for 45 minutes; lane 4, incubation with 10 μg/ml .phi.X174 DNA for 45 minutes, followed by incubation with 1 mM ATP for 45 minutes; lane 5, incubation with 1 mM ATP for 45 minutes, followed by incubation with 10 μg/ml .phi.X174 DNA for 45 minutes; lane 6, incubation with nothing added for 45 minutes, followed by incubation with 10 μg/ml .phi.X174 DNA for 45 minutes. In FIG. 29, lanes 1-6, cytoplasmic extracts from infected cells were incubated at 37° C. for 45 minutes in the presence of 1 mM ATP and .phi.X174 DNA at a concentration of 0 μg/ml (lane 1), 0.3 μg/ml (lane 2), 0.8 μg/ml (lane 3), 1.6 μg/ml (lane 4), 3.2 μg/ml (lane 5), or 6.4 μg/ml (lane 6). Lane 7, extract incubated with 6.4 μg/ml .phi.X174 DNA for 45 minutes in the absence of added ATP. In FIG. 30, cytoplasmic extracts from infected cells were incubated at 37° C. for 60 minutes with nothing added (lane 1), with 6.4 μg/ml .phi.X174 DNA and 1 mM ATPγS (lane 2), or with 1 mM […] (lane 3). […]

viral DNA = experiment: PCR analysis of circular viral DNA formed in vitro; type: biochemical, HIV-1
Procedure: The following oligonucleotides were used for PCR: PBS, 5'-GTCGCCGCCCCTCGCCTC-3'(SEQ ID No. 1); tat, 5'-[…]-3'(SEQ ID No. 2); nef, 5'-[…]-3'(SEQ ID No. 3); R1, 5'-[…]-3'(SEQ ID No. 4); R2, 5'-[…]-3'(SEQ ID No. […]). One hundred microliter reactions contained 10 mM Tris hydrochloride (pH 8.3), 50 mM KCl, 1.5 mM MgCl2, 0.001% (w/v) gelatin, 200 μM each dATP, dCTP, dGTP, and dTTP, 1 μM each of the indicated primer, and 2.5 units of AmpliTaq recombinant Taq DNA polymerase (Perkin Elmer Cetus Co., Norwalk, Conn.). For amplification of viral DNA from cytoplasmic extracts, each reaction contained approximately 1/30 the amount of DNA from a 3 ml extract. For amplification of viral DNA from Hirt extractions, each reaction contained DNA from the equivalent of 2×10^6 cells. An initial denaturation step at 98° C. was performed for 10 minutes. Thirty cycles of the PCR reaction were then performed with an annealing temperature of 60° C. for 1 minute, an extension temperature of 72° C. for 5 minutes, and a denaturation temperature of 95° C. for 1 minute. Reaction products were visualized following electrophoresis on 1% agarose gel containing ethidium bromide. […]
Additional rounds of PCR amplification were necessary to detect the presence of a DNA fragment corresponding to the 2-LTR junction fragment when viral DNA from Hirt supernatants of infected cells were used, presumably due to the lower concentration of 2-LTR circles as compared to 1-LTR circles in these preparations (data not shown). Similarly, 2-LTR junction fragments were not readily detected among the amplification products of circular viral DNA formed in vitro, most likely due to the low concentration of simple 2-LTR circles and competition by the other forms of circular viral DNA (1-LTR circles and 2-LTR circles formed by autointergration) present at much higher concentrations. […]

SMILES: Nc1ncnc2c1ncn2[C@@H]1O[C@H](COP(=O)(O)OP(=O)(O)OP(=O)(O)O)[C@@H](O)[C@H]1O [ATP, adenosine triphosphate]
- circular or integrated product ([1]; ATP (1 mM) and target DNA together, versus either alone, 45 min): the amount of circular or integrated product produced was reduced
- integration of viral DNA into target DNA ([1]; preincubation with 1 mM ATP for 45 min prior to target DNA): integration of viral DNA into target DNA was prevented; also recorded: unable to integrate during a subsequent incubation with target DNA
- PCR amplification product (2-LTR junction, R region primers) (viral DNA; SalI digested circular DNA formed with added ATP): A DNA fragment of the same size was detected
- PCR amplification products (PBS and tat primers, autointegration) (viral DNA; extracts incubated with 1 mM ATP): a mixture of DNA fragments of heterogeneous lengths
- PCR amplification product (1-LTR circle junction) (viral DNA; extracts treated with 1 mM ATP, PBS and nef primers): a DNA fragment having the size expected for a 1-LTR circle junction was generated
